{
  "source": "ChEMBL document CHEMBL5214959",
  "about": "“Synthesis of capuramycin and its analogues via a Ferrier-type I reaction and their biological evaluation” (Bioorg Med Chem, 2022)",
  "key": {"[1]": {"biological_target": "T1, Phospho-N-acetylmuramoyl-pentapeptide-transferase (Staphylococcus aureus, UniProt P0C1R8)", "T1 sequence (P0C1R8 whole entry)": "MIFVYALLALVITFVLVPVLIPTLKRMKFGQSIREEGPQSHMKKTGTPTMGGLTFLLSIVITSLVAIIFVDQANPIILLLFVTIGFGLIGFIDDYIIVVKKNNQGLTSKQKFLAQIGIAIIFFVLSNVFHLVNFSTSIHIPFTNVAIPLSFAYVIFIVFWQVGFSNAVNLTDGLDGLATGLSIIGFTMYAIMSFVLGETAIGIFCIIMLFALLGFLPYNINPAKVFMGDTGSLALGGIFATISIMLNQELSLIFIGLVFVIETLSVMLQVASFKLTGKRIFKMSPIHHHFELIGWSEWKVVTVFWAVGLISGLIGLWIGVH", "assay": "Inhibition of Staphylococcus aureus MraY assessed as reduction of dansylated lipid I formation using UDP-MurNAc-dansylpentapeptide as substrate incubated for 3 to 4 hrs by fluorescence based analysis"}, "[2]": {"tested_on": "Mycobacterium tuberculosis", "assay": "Antibacterial activity against Mycobacterium tuberculosis H37Rv incubated for 14 days measured by microplate reader method", "type": "functional", "settings": "336 h, time 14 day"}, "[3]": {"tested_on": "Mycolicibacterium smegmatis", "assay": "Antibacterial activity against Mycobacterium smegmatis mc2 155 incubated for 4 days measured by microplate reader method", "type": "functional", "settings": "mc2 155, 96 h, time 4 day"}, "[4]": {"assay": "Antibacterial activity against Mycobacterium avium subsp. avium ATCC 25291 incubated for 11 days measured by microplate reader method", "type": "functional", "settings": "ATCC 25291, 264 h, time 11 day"}, "[5]": {"assay": "Antibacterial activity against Mycobacterium abscessus subsp. abscessus ATCC 19977 incubated for 5 days measured by microplate reader method", "type": "functional", "settings": "Mycobacteroides abscessus, ATCC 19977, 120 h; time 5 day"}, "[6]": {"assay": "Inhibition of bacterial MraY", "set-up": "species or system Bacteria"}, "[7]": {"tested_on": "Mycolicibacterium smegmatis", "assay": "Antibacterial activity against Mycobacterium smegmatis", "type": "functional"}},
  "data": [
    {"smiles": "NC(=O)[C@H](O[C@H]1OC(C(=O)N[C@H]2CCCCNC2=O)=C[C@H](O)[C@@H]1O)[C@H]1O[C@@H](n2ccc(=O)[nH]c2=O)[C@H](O)[C@@H]1O", "values": [
      {"measurement": "IC50", "setting": "[1]", "result": 2, "unit": "µM"},
      {"measurement": "MIC50", "setting": "[2]", "result": "> 32", "unit": "µg/mL"},
      {"measurement": "MIC50", "setting": "[3]", "result": 32, "unit": "µg/mL"},
      {"measurement": "MIC50", "setting": "[4]", "result": 16, "unit": "µg/mL"},
      {"measurement": "MIC50", "setting": "[5]", "result": "≥ 64", "unit": "µg/mL"}
    ]},
    {"smiles": "CO[C@H]1[C@@H](O)[C@H](n2ccc(=O)[nH]c2=O)O[C@@H]1[C@H](C#N)O[C@H]1OC(C(=O)N[C@H]2CCCCNC2=O)=C[C@H](O)[C@@H]1O", "values": [
      {"measurement": "IC50", "setting": "[1]", "result": 12, "unit": "µM"},
      {"measurement": "MIC50", "setting": "[2]", "result": "> 32", "unit": "µg/mL"},
      {"measurement": "MIC50", "setting": "[3]", "result": "> 32", "unit": "µg/mL"},
      {"measurement": "MIC50", "setting": "[4]", "result": "> 32", "unit": "µg/mL"},
      {"measurement": "MIC50", "setting": "[5]", "result": "> 64", "unit": "µg/mL"}
    ]},
    {"smiles": "CO[C@H]1[C@@H](O)[C@H](n2ccc(=O)[nH]c2=O)O[C@@H]1[C@H](O[C@H]1OC(C(=O)N[C@H]2CCCCNC2=O)=C[C@H](O)[C@@H]1O)C(N)=O", "values": [
      {"measurement": "IC50", "setting": "[1]", "result": 10, "unit": "µM"},
      {"measurement": "MIC50", "setting": "[2]", "result": "> 32", "unit": "µg/mL"},
      {"measurement": "MIC50", "setting": "[3]", "result": "> 32", "unit": "µg/mL"},
      {"measurement": "MIC50", "setting": "[4]", "result": "> 32", "unit": "µg/mL"},
      {"measurement": "MIC50", "setting": "[5]", "result": "≥ 64", "unit": "µg/mL"}
    ]},
    {"smiles": "O=C(N[C@H]1CCCCNC1=O)C1=C[C@H](O)[C@H](O)[C@@H](OC[C@H]2O[C@@H](n3ccc(=O)[nH]c3=O)[C@H](O)[C@@H]2O)O1", "values": [
      {"measurement": "IC50", "setting": "[1]", "result": 76, "unit": "µM"},
      {"measurement": "MIC50", "setting": "[2]", "result": "> 32", "unit": "µg/mL"},
      {"measurement": "MIC50", "setting": "[3]", "result": "> 32", "unit": "µg/mL"},
      {"measurement": "MIC50", "setting": "[4]", "result": "> 32", "unit": "µg/mL"},
      {"measurement": "MIC50", "setting": "[5]", "result": 32, "unit": "µg/mL"}
    ]},
    {"smiles": "CO[C@H]1[C@@H](O)[C@H](n2ccc(=O)[nH]c2=O)O[C@@H]1[C@@H](O[C@H]1OC(C(=O)N[C@H]2CCCCNC2=O)=C[C@H](O)[C@@H]1O)C(N)=O", "note": "[CAPURAMYCIN]", "values": [
      {"measurement": "IC50", "setting": "[6]", "result": 0.01, "unit": "µg/mL"},
      {"measurement": "MIC", "setting": "[7]", "result": 6.25, "unit": "µg/mL"},
      {"measurement": "IC50", "setting": "[1]", "result": 0.33, "unit": "µM"},
      {"measurement": "MIC50", "setting": "[2]", "result": 32, "unit": "µg/mL"},
      {"measurement": "MIC50", "setting": "[3]", "result": 32, "unit": "µg/mL"},
      {"measurement": "MIC50", "setting": "[4]", "result": 8, "unit": "µg/mL"},
      {"measurement": "MIC50", "setting": "[5]", "result": 64, "unit": "µg/mL"}
    ]}
  ]
}
